From US12060333B2 (Hoffmann-La Roche Inc., priority 2021, dated 2024)
“And” between values parts separate entries of the source, which are not always exact repeats. Equal values may be shown once. Read-outs that look alike come from different tables or passages of the source.

Assays:
SARS-CoV 3CLpro = SARS-CoV 3CLpro (Severe acute respiratory syndrome coronavirus, UniProt P0C6X7); experiment: biochemical
MERS-CoV 3CLpro = MERS-CoV 3CLpro (Middle East respiratory syndrome-related coronavirus, UniProt K9N7C7); experiment: biochemical
SARS-CoV-2 3CLpro = SARS-CoV-2 3CLpro (Severe acute respiratory syndrome coronavirus 2, UniProt P0DTD1); experiment: biochemical
HCoV-229E 3CLpro = HCoV-229E 3CLpro (Human coronavirus 229E, UniProt P0C6X1); experiment: HCoV-229E 3CLpro inhibition assay (FRET); assay type: biochemical; details: protease 25 nM, FRET substrate 15 μM, pre-incubated 1 hr, read-out: 229E (activity in different coronaviruses)
Procedure: HCoV-229E 3CL^pro inhibition assay
The HCoV-229E 3CL^pro was expressed in E. coli BL21 (DE3) with the protein sequence of
For the HCoV-229E 3CL^pro assay, 2 μL of […] recombinant HCoV-229E 3CL protease were mixed with serial dilutions of each compound in 4 μL assay buffer containing 40 mM HEPES, pH=8.0, 1 mM CHAPS, 150 mM NaCl, 1 mM EDTA, 1 mM TCEP in a well of a 384-well plate and pre-incubated at rt for 1 hr. The custom-synthesized fluorogenic 3CL^pro peptide substrate used in the assay is as follows: FAM-[…]-TAMRA (peptide sequence according to SEQ ID NO: 3). This FRET-based substrate contains a FAM fluorophore attached at the N-terminus of a canonical 3CL^pro peptide substrate. The fluorophore is internally quenched by the TAMRA. The reaction was initiated by the addition of 10 μL of the substrate with a final concentration of 15 μM and each well was incubated at RT for 30 mins. The final concentration of the protease used at the assay was 25 nM and each compound was at a final concentration range of 100-0.0016 μM. The IC50 value which is the value causing 50% inhibition of the catalytic activity of the HCoV-229E 3CL^pro was calculated by four parameters equation analysis.

[1] = IC50 (μM), SARS-CoV-2 3CLPro assay
[2] = read-out: IC50 (μM), SARS-CoV-2 3CLPro assay

Structure (SMILES)	IC50 (SARS-CoV 3CLpro)	IC50 (MERS-CoV 3CLpro)	IC50 (SARS-CoV-2 3CLpro; [1])	IC50 (HCoV-229E 3CLpro)	IC50 (SARS-CoV-2 3CLpro; [2])	IC50 (SARS-CoV 3CLpro; read-out: SARS (activity in different coronaviruses))
CC(C)C[C@H](NC(=O)c1cc2ccccc2[nH]1)C(=O)NN(C[C@@H]1CCNC1=O)C(=O)CCl (single isomer, unassigned) [Example 51-A]	15 nM	60 nM	0.004 µM and 0.0027 µM	17 nM		
Cc1cc(C(=O)N[C@@H](CC23CC(C2)C3)C(=O)NN(C[C@@H]2CCNC2=O)C(=O)[C@H](F)Cl)no1 [Example 71, N-[(1S)-1-(1-bicyclo[1.1.1]pentanylmethyl)-2-[2-[(2R)-2-chloro-2-fluoro-acetyl]-2-[[(3S)-2-axopyrrolidin-3-yl]methyl]hydrazino]-2-axo-ethyl]-5-methyl-isoxazole-3-carboxamide]			0.11 µM	25 nM		
CC(C)C[C@H](NC(=O)c1cc2ccccc2[nH]1)C(=O)NN(CCC(N)=O)C(=O)CCl [Example 28, N-[(1S)-1-[[(3-amino-3-oxo-propyl)-(2-chloroacetyl)amino]carbamoyl]-3-methyl-butyl]-1H-indole-2-carboxamide]	16 nM	50 nM		13 nM	0.007 µM	
O=C(N[C@@H](CC12CC(C1)C2)C(=O)NN(C[C@@H]1CCNC1=O)C(=O)[C@H](F)Cl)c1cc(C(F)(F)F)on1 [Example 99, N-[(1S)-1-(1-bicyclo[1.1.1]pentanylmethyl)-2-[2-[(2R)-2-chloro-2-fluoro-acetyl]-2-[[(3S)-2-axopyrrolidin-3-yl]methyl]hydrazino]-2-axo-ethyl]-5-(trifluoromethyl)isoxazole-3-carboxamide]				24 nM	0.071 µM	
CC1(C[C@H](NC(=O)c2cc(C(F)F)on2)C(=O)NN(C[C@@H]2CCNC2=O)C(=O)[C@H](F)Cl)CC1 [Example 100, N-[(1S)-2-[2-[(2R)-2-chloro-2-fluoro-acetyl]-2-[[(3S)-2-axopyrrolidin-3-yl]methyl]hydrazino]-1-[(1-methylcyclopropyl)methyl]-2-axo-ethyl]-5-(difluoromethyl)isoxazole-3-carboxamide]	31 nM	94 nM	0.024 µM	28 nM		
Cc1cc(C(=O)N[C@@H](CCC(C)C)C(=O)NN(C[C@@H]2CCNC2=O)C(=O)[C@H](F)Cl)no1 [Example 101, N-[(1S)-1-[[[(2R)-2-chloro-2-fluoro-acetyl]-[[(3S)-2-axopyrrolidin-3-yl]methyl]amino]carbamoyl]-4-methyl-pentyl]-5-methyl-isoxazole-3-carboxamide]		320 nM		74 nM	0.09 µM	160 nM
Cc1cc(C(=O)N[C@@H](CC2(C)CC2)C(=O)NN(C[C@@H]2CCNC2=O)C(=O)[C@H](F)Cl)no1 [Example 70, N-[(1S)-2-[2-[(2R)-2-chloro-2-fluoro-acetyl]-2-[[(3S)-2-axopyrrolidin-3-yl]methyl]hydrazino]-1-[(1-methylcyclopropyl)methyl]-2-axo-ethyl]-5-methyl-isoxazole-3-carboxamide]	94 nM	54 nM	0.059 µM	24 nM		
CC(C)C[C@H](NC(=O)c1cc2cc(Cl)ccc2[nH]1)C(=O)NN(CCC(N)=O)C(=O)[C@H](F)Cl (racemic) [Example 58-B, 5-chloro-N-[rac-(1S)-1-[[(3-amino-3-oxo-propyl)-[rac-(2R)-2-chloro-2-fluoro-acetyl]amino]carbamoyl]-3-methyl-butyl]-1H-indole-2-carboxamide]			0.007 µM			
COc1cc2cc(C(=O)N[C@@H](CC(C)C)C(=O)NN(CCC(N)=O)C(=O)C(F)Cl)[nH]c2cn1 (mixture of isomers) [Example 89, 5-methoxy-N-[rac-(1S)-1-[[(3-amino-3-axo-propyl)-(2-chloro-2-fluoro-acetyl)amino]carbamoyl]-3-methyl-butyl]-1H-pyrrolo[2,3-c]pyridine-2-carboxamide]			0.019 µM			
CC(C)C[C@H](NC(=O)c1nc2cc(Cl)ccc2[nH]1)C(=O)NN(CCC(N)=O)C(=O)[C@H](F)Cl (racemic) [Example 60-B, 5-chloro-N-[rac-(1S)-1-[[(3-amino-3-oxo-propyl)-[rac-(2R)-2-chloro-2-fluoro-acetyl]amino]carbamoyl]-3-methyl-butyl]-1H-benzimidazole-2-carboxamide]			0.052 µM			
